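Five compound concentrations were applied to cells in 96-well plates for 48 hours; endpoints were derived by simple linear interpolation of the resulting dose-response curve. At the GI50, growth is halved.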 Calls of active or inactive are those of the source. Cut-off read from the data, not from the text of the source: active = GI50 up to about 1.1 µM and inactive = higher.
Legend:
Test in all cases: NCI anticancer screen, dose series, 48 h
A498 = system: A498
A549 = system: A549
CAKI-1 = system: CAKI-1
CCRF-CEM = system: CCRF-CEM
HCT-116 = system: HCT-116
HCT-15 = system: HCT-15
HOP-92 = system: HOP-92
IGROV-1 = system: IGROV-1
NCI-H460 = system: NCI-H460
NCI/ADR-RES = system: NCI/ADR-RES
OVCAR-8 = system: OVCAR-8
RPMI-8226 = system: RPMI-8226
SF-268 = system: SF-268
SK-MEL-28 = system: SK-MEL-28
SK-MEL-5 = system: SK-MEL-5
SNB-75 = system: SNB-75
SR = system: SR
SW-620 = system: SW-620
TK-10 = system: TK-10
HOP-62 = system: HOP-62

For `CCOC(=O)/C(C#N)=C/N(CC)/N=C/c1ccccc1`, the GI50 (A498) was > 100 µM (inactive), the GI50 (A549) was > 100 µM (inactive) and the GI50 (CAKI-1) was > 100 µM (inactive). The GI50 (CCRF-CEM) was > 100 µM (inactive), the GI50 (HCT-116) was > 100 µM (inactive) and the GI50 (HCT-15) was greater than 100 µM. The GI50 (HOP-92) was > 100 µM (inactive), the GI50 (IGROV-1) was > 100 µM (inactive) and the GI50 (NCI-H460) was > 100 µM (inactive). For the same compound, the GI50 (NCI/ADR-RES) was 60.4 µM (inactive), the GI50 (OVCAR-8) was 81.3 µM (inactive) and the GI50 (RPMI-8226) was > 100 µM (inactive). The GI50 (SF-268) was > 100 µM (inactive), the GI50 (SK-MEL-28) was > 100 µM (inactive) and the GI50 (SK-MEL-5) was > 100 µM (inactive). For the same compound, the GI50 (SNB-75) was > 100 µM (inactive), the GI50 (SR) was > 100 µM (inactive) and the GI50 (SW-620) was > 100 µM (inactive). For the same compound, the GI50 (TK-10) was > 100 µM (inactive).
`CCOC(=O)c1sc2nc(SC)nc3c2c1NCN3c1ccc(F)c(F)c1` was tested, and the GI50 (A498) was 12.6 µM (inactive), the GI50 (A549) was 8.04 µM (inactive) and the GI50 (CAKI-1) was > 52.5 µM (inactive). For the same compound, the GI50 (CCRF-CEM) was 16.7 µM (inactive), the GI50 (HCT-116) was 9.02 µM (inactive) and the GI50 (HCT-15) was 12.4 µM. The GI50 (HOP-62) was 12.1 µM (inactive), the GI50 (HOP-92) was 18.5 µM (inactive) and the GI50 (IGROV-1) was 43.1 µM (inactive). For the same compound, the GI50 (NCI-H460) was 8.63 µM (inactive), the GI50 (NCI/ADR-RES) was 9.98 µM (inactive) and the GI50 (OVCAR-8) was 5.27 µM (inactive). The GI50 (RPMI-8226) was 9.93 µM (inactive), the GI50 (SF-268) was 9.84 µM (inactive) and the GI50 (SK-MEL-28) was 23.7 µM (inactive). The GI50 (SK-MEL-5) was > 71.9 µM (inactive), the GI50 (SR) was > 21.5 µM (inactive) and the GI50 (SW-620) was 10 µM (inactive). The GI50 (TK-10) was 22.6 µM (inactive).
For `COc1cc(S(=O)(=O)Nc2ccc(-c3csc(N4C(=O)C(C)SC4c4cccs4)n3)cc2)ccc1Cl` (stereo not given), the GI50 (A498) was > 100 µM (inactive), the GI50 (CAKI-1) was 50.5 µM (inactive) and the GI50 (CCRF-CEM) was 8.28 µM (inactive). For the same compound, the GI50 (HCT-116) was 35.1 µM (inactive), the GI50 (HCT-15) was 37 µM and the GI50 (HOP-62) was 0.558 µM (active). The GI50 (HOP-92) was 20.1 µM (inactive), the GI50 (IGROV-1) was 29.1 µM (inactive) and the GI50 (NCI/ADR-RES) was > 100 µM (inactive). For the same compound, the GI50 (OVCAR-8) was 32.4 µM (inactive), the GI50 (RPMI-8226) was 24.1 µM (inactive) and the GI50 (SF-268) was 22.5 µM (inactive). The GI50 (SK-MEL-28) was 23.8 µM (inactive), the GI50 (SK-MEL-5) was 41.3 µM (inactive) and the GI50 (SR) was 33.8 µM (inactive). For the same compound, the GI50 (SW-620) was 34.4 µM (inactive).
`Nc1nonc1-c1noc(-c2nonc2N)[n+]1[O-]` was tested, and the GI50 (A498) was > 100 µM (inactive), the GI50 (A549) was 30.3 µM (inactive) and the GI50 (CAKI-1) was 18.4 µM (inactive). The GI50 (CCRF-CEM) was 0.366 µM (active), the GI50 (HCT-116) was > 100 µM (inactive) and the GI50 (HCT-15) was 19.7 µM. For the same compound, the GI50 (HOP-62) was > 100 µM (inactive), the GI50 (HOP-92) was 69.8 µM (inactive) and the GI50 (IGROV-1) was > 100 µM (inactive). For the same compound, the GI50 (NCI-H460) was 62.7 µM (inactive), the GI50 (NCI/ADR-RES) was 69.2 µM (inactive) and the GI50 (RPMI-8226) was 54.6 µM (inactive). For the same compound, the GI50 (SF-268) was > 100 µM (inactive), the GI50 (SK-MEL-28) was > 100 µM (inactive) and the GI50 (SK-MEL-5) was 32.1 µM (inactive). For the same compound, the GI50 (SR) was 93.8 µM (inactive), the GI50 (SW-620) was 27 µM (inactive) and the GI50 (TK-10) was 43 µM (inactive).
In the case of `O=C(NC1CCN(Cc2ccccc2)CC1)c1cccc(I)c1`, the GI50 (A498) is reported as 46.6 µM (inactive), the GI50 (A549) is reported as 31.9 µM (inactive) and the GI50 (CAKI-1) is reported as 19.7 µM (inactive). For the same compound, the GI50 (CCRF-CEM) was 33.3 µM (inactive), the GI50 (HCT-116) was 15.3 µM (inactive) and the GI50 (HCT-15) was 17.5 µM. For the same compound, the GI50 (HOP-62) was 15.8 µM (inactive), the GI50 (HOP-92) was 22 µM (inactive) and the GI50 (IGROV-1) was 39 µM (inactive). The GI50 (NCI-H460) was 22 µM (inactive), the GI50 (NCI/ADR-RES) was 31.8 µM (inactive) and the GI50 (OVCAR-8) was 39.2 µM (inactive). For the same compound, the GI50 (RPMI-8226) was 12.5 µM (inactive), the GI50 (SF-268) was 50.9 µM (inactive) and the GI50 (SK-MEL-28) was 18 µM (inactive). The GI50 (SK-MEL-5) was 16.9 µM (inactive), the GI50 (SR) was 18.8 µM (inactive) and the GI50 (SW-620) was 17.1 µM (inactive). For the same compound, the GI50 (TK-10) was 22.8 µM (inactive).
For `COc1ccc2c(c1OC)C(=O)O[C@@H]2[C@H]1c2c(cc3c(c2OC)OCO3)CCN1C` [NOSCAPINE], the GI50 (A498) was > 100 µM (inactive), the GI50 (A549) was 72.9 µM (inactive) and the GI50 (CAKI-1) was 63 µM (inactive). For the same compound, the GI50 (CCRF-CEM) was 12.9 µM (inactive), the GI50 (HCT-116) was 50.5 µM (inactive) and the GI50 (HCT-15) was 43.4 µM. For the same compound, the GI50 (HOP-62) was 71.4 µM (inactive), the GI50 (HOP-92) was > 100 µM (inactive) and the GI50 (IGROV-1) was 62.7 µM (inactive). The GI50 (NCI-H460) was 39.9 µM (inactive), the GI50 (NCI/ADR-RES) was 43.8 µM (inactive) and the GI50 (OVCAR-8) was 63.5 µM (inactive). For the same compound, the GI50 (RPMI-8226) was 23.3 µM (inactive), the GI50 (SF-268) was 71.8 µM (inactive) and the GI50 (SK-MEL-28) was 42.1 µM (inactive). For the same compound, the GI50 (SK-MEL-5) was 48.3 µM (inactive), the GI50 (SNB-75) was 4.86 µM (inactive) and the GI50 (SR) was 38.8 µM (inactive). The GI50 (SW-620) was 27 µM (inactive).
